Reference: patent publication US20260226042A1, “C[…] H[…] PROCESSES FOR PREPARING THE SAME” (OLON S.P.A., priority 2023, published 2026)
Counter-ions that a name gives are not always drawn.

Assay: Dynamic Vapor Sorption (DVS) Isotherm of Aceclidine HCl (hydration of anhydrous to hemihydrate form)
Format: physicochemical
Description: The conversion from anhydrous to hemihydrate form of Aceclidine HCl (4 mg) was analyzed by a Dynamic Vapor Sorption (DVS) Isotherm.

With `CC(=O)OC1CN2CCC1CC2` (centres unmarked) [Aceclidine HCl hemihydrate] the “weight when environmental humidity content decreased” value (DVS, FIG. 4) was “remained stable”, the “reversibility of conversion anhydrous to hemihydrate form” value (DVS, with decreasing relative humidity, FIG. 4) was “irreversible” and the hygroscopicity (compared to the corresponding anhydrous form) was “low hygroscopicity”. The “conversion into other forms without controlled conditions” value (handling without humidity-controlled conditions (e.g. glove box)) was “not subjected to any conversion”.
For `CC(=O)OC1CN2CCC1CC2` (centres unmarked) [Anhydrous Aceclidine HCl, anhydrous Aceclidine HCl, reference compound], the “weight change at which the hemihydrate form formation is obtained” value (DVS isotherm, weight change % / relative humidity %, 4 mg sample, FIG. 4) was “about 4%”.
